According to US20090238881A1, “IONOPHORE ANTIBIOTIC FORMULATIONS” (priority 2000, published 2009):

Assays:
[1] = Solubility of monensin in propylene glycol; assay type: physicochemical
Text: There is an indication that 50% of the monensin was found in solution in the propylene glycol.
We have found monopropylene glycol to be a poor solvent of monensin. While we have in NZ 272574/272940 referred to monopropylene glycol as being an antifreeze agent in which the ionophore antibiotic is sparingly soluble, we do appreciate that solubility to the extent referred to in Example 1 of EP 0,139,595 may be achieved when induced with ultrasound or heating.

[2] = EP 0,139,595 Example 1: 250 g mycelium (10% monensin), 1250 cc propylene glycol, room temperature, 2 hours ultrasound; cited from earlier work
[3] = cited from earlier work

Substance: monensin
- solubility in monopropylene glycol [1]: poor solvent
- monensin found in solution in the propylene glycol [2]: 50%
- solubility in water [3]: only slightly soluble in water
